Assay results reported in patent US6376497B1, “Antifungal azole derivatives having a fluorinated vinyl group and process for preparing same” (Korea Research Institute of Chemical Technology, priority 1999, dated 2002).

How the values were obtained:
Assay in all cases: In vitro antifungal activity, microbroth dilution MIC
Type in all cases: cell-based
[1] = tested on: Cryptococcus neoformans A. 34144; settings: Cry. neoformans A. 34144, RPMI-1640, 35° C., 4 to 48 hours
Protocol: (§1) In vitro antifungal activities of the inventive antifungal compounds were evaluated using the test strains shown in Table VIII by the following microbroth dilution method which is a modified version of the procedure recommended by National Committee for Clinical Laboratory Standards(see National Committee for Clinical Laboratory Standards, 1992, Reference methods for broth dilution antifungal susceptibility testing of yeasts, Proposed standard M27-P, National Committee for clinical laboratory standards, Villanova, Pa; and National Committee for Clinical Laboratory Standards, 1995, Reference methods for broth dilution antifungal susceptibility testing of yeasts. Tentative standard M27-T, National Committee for clinical laboratory standards, Villanova, Pa).
(§2) Sabourad Dextrose Agar(Difco) was used as a culture medium, and RPMI-1640 broth(Sigma. Co. w/L-glutamine, wo/NaHCO3)(0.165 M MOPS, pH 7.0), as a dilution medium.
(§3) Each of the test strains were subcultured in Sabourad Dextrose Agar medium twice and a stain sample was taken from prominent colonies and suspended in sterile physiological saline solution in a cap tube. The turbidity of the suspension was adjusted to that of the Mcfarland 0.5 standard sample(approximately 10^6 CFU/ml). Then the suspension was diluted 500-fold with sterile RPMI-1640 liquid medium to 2×10^3 CFU/ml.
(§4) Each of the test compounds(the compounds obtained in Examples 1 to 150 and comparative compounds, i.e., fluconazole(FCZ) and itraconazole (ICZ)), was dissolved in DMSO to give a stock solution having a concentration of 4000 μg/ml and the stock solution was successively diluted to obtain test solutions having test compound concentrations of 200, 100, 50, 25, 12.5, 6.25, 3.13, 1.56, 0.78, 0.39, 0.20 and 0.10 μg/ml, respectively.
(§5) 0.1 ml portion of the test solutions were added to the wells of a sterile 96 well plate. Then, 0.1 ml portion of each of the test strain solutions were added successively to the wells and the plate was incubated at 35° C. for 4 to 48 hours.
(§6) Minimal inhibitory concentration(MIC) of each compound was defined as the concentration of the test compound where no growth of the strain could be observed.

[2] = tested on: Trichophyton mentagrophytes B. 32663; settings: T. mentagrophytes B. 32663, RPMI-1640, 35° C., 4 to 48 hours
Protocol: as §1, §2, §3, §4, §5, §6

Candida albicans C1-2 = settings: C. albicans C1-2, RPMI-1640, 35° C., 4 to 48 hours
Protocol: as §1, §2, §3, §4, §5, §6

[3] = tested on: Cryptococcus neoformans IFM. 40092; settings: Cry. neoformans IFM. 40092, RPMI-1640, 35° C., 4 to 48 hours
Protocol: as §1, §2, §3, §4, §5, §6

[4] = tested on: Aspergillus niger A. 16404; settings: A. niger A. 16404, RPMI-1640, 35° C., 4 to 48 hours
Protocol: as §1, §2, §3, §4, §5, §6

[5] = tested on: Candida parapsitosis A. 7330; settings: C. parapsitosis A. 7330, RPMI-1640, 35° C., 4 to 48 hours
Protocol: as §1, §2, §3, §4, §5, §6

[6] = tested on: Candida albicans IFO. 1385; settings: C. albicans IFO. 1385, RPMI-1640, 35° C., 4 to 48 hours
Protocol: as §1, §2, §3, §4, §5, §6

[7] = tested on: Trichophyton mentagrophytes A. 9129; settings: T. mentagrophytes A. 9129, RPMI-1640, 35° C., 4 to 48 hours
Protocol: as §1, §2, §3, §4, §5, §6

Candida krusei K. 11655 = settings: C. krusei K. 11655, RPMI-1640, 35° C., 4 to 48 hours
Protocol: as §1, §2, §3, §4, §5, §6

[8] = tested on: Cryptococcus neoformans B. 42419; settings: Cry. neoformans B. 42419, RPMI-1640, 35° C., 4 to 48 hours
Protocol: as §1, §2, §3, §4, §5, §6

[9] = tested on: Candida pseudotropicalis K. 11658; settings: C. pseudotropicalis K. 11658, RPMI-1640, 35° C., 4 to 48 hours
Protocol: as §1, §2, §3, §4, §5, §6

[10] = tested on: Candida tropicalis A. 13803; settings: C. tropicalis A. 13803, RPMI-1640, 35° C., 4 to 48 hours
Protocol: as §1, §2, §3, §4, §5, §6

[11] = tested on: Candida albicans A. 10231; settings: C. albicans A. 10231, RPMI-1640, 35° C., 4 to 48 hours
Protocol: as §1, §2, §3, §4, §5, §6

[12] = tested on: Aspergillus furnigatus B. 19119; settings: A furnigatus B. 19119, RPMI-1640, 35° C., 4 to 48 hours
Protocol: as §1, §2, §3, §4, §5, §6

[13] = tested on: Torulopsis glabrata B. 16205; settings: T. glabrata B. 16205, RPMI-1640, 35° C., 4 to 48 hours
Protocol: as §1, §2, §3, §4, §5, §6

Minimal inhibitory concentration (MIC) [1] [µg/mL] | Minimal inhibitory concentration (MIC) [2] | Minimal inhibitory concentration (MIC) (Candida albicans C1-2) [µg/mL] | Minimal inhibitory concentration (MIC) [3] | Minimal inhibitory concentration (MIC) [4] [µg/mL] | Minimal inhibitory concentration (MIC) [5] [µg/mL] | Minimal inhibitory concentration (MIC) [6] [µg/mL] | Minimal inhibitory concentration (MIC) [7] [µg/mL] | Minimal inhibitory concentration (MIC) (Candida krusei K. 11655) [µg/mL] | Minimal inhibitory concentration (MIC) [8] [µg/mL] | Minimal inhibitory concentration (MIC) [9] [µg/mL] | Minimal inhibitory concentration (MIC) [10] [µg/mL] | Minimal inhibitory concentration (MIC) [11] [µg/mL] | Minimal inhibitory concentration (MIC) [12] [µg/mL] | Minimal inhibitory concentration (MIC) [13] [µg/mL] | SMILES
3.13 | 3.13 µg/mL | 12.5 | 0.78 µg/mL | 25.0 | 100 | 0.78 | 6.25 | 50.0 | 3.13 | 25.0 | 25.0 | 12.5 | 6.25 | 6.25 | Cc1cc(C)cc(C=C(F)OCC2COC(Cn3ccnc3)(c3ccc(F)cc3F)O2)c1 (mixture of isomers) [Ex. 41]
0.78 | 1.56 µg/mL | 12.5 | ≦0.10 μg/ml | 100 | 25.0 | 0.78 | 6.25 | 25.0 | 0.78 | 25.0 | 25.0 | 12.5 | 12.5 | 6.25 | Cc1cc(C)c(C=C(F)OCC2COC(Cn3ccnc3)(c3ccc(F)cc3F)O2)cc1C (mixture of isomers) [Ex. 42]
1.56 | 1.56 µg/mL | 25.0 | 0.39 µg/mL | >100 | 12.5 | 0.78 | 6.25 | 12.5 | 1.56 | 6.25 | 50.0 | 25.0 | 12.5 | 6.25 | COc1cccc(C=C(F)OCC2COC(Cn3ccnc3)(c3ccc(F)cc3F)O2)c1 (mixture of isomers) [Ex. 43]
1.56 | 1.56 µg/mL | 25.0 | 0.39 µg/mL | >100 | 12.5 | 0.39 | 6.25 | 12.5 | 1.56 | 6.25 | 50.0 | 25.0 | 12.5 | 6.25 | CCOc1ccc(C=C(F)OCC2COC(Cn3ccnc3)(c3ccc(F)cc3F)O2)cc1 (mixture of isomers) [Ex. 44]
1.56 | 1.56 µg/mL | 25.0 | 0.39 µg/mL | 100 | 12.5 | 0.39 | 6.25 | 12.5 | 1.56 | 6.25 | 50.0 | 25.0 | 12.5 | 6.25 | CC(C)Oc1cccc(C=C(F)OCC2COC(Cn3ccnc3)(c3ccc(F)cc3F)O2)c1 (mixture of isomers) [Ex. 45]
0.78 | ≦0.10 μg/ml | 12.5 | ≦0.10 μg/ml | 6.25 | 6.25 | 0.20 | 0.39 | 12.5 | 0.78 | 6.25 | 25.0 | 12.5 | 1.56 | 6.25 | FC(=Cc1ccc(Cl)cc1)OCC1COC(Cn2ccnc2)(c2ccc(F)cc2F)O1 (mixture of isomers) [Ex. 47]
0.78 | ≦0.10 μg/ml | 25.0 | ≦0.10 μg/ml | 6.25 | 25.0 | 0.20 | 0.39 | 25.0 | 0.78 | 12.5 | 50.0 | 25.0 | 1.56 | 12.5 | FC(=Cc1cccc(F)c1)OCC1COC(Cn2ccnc2)(c2ccc(F)cc2F)O1 (mixture of isomers) [Ex. 48]
0.78 | ≦0.10 μg/ml | 25.0 | ≦0.10 μg/ml | 6.25 | 25.0 | 0.20 | 0.39 | 25.0 | 0.78 | 12.5 | 50.0 | 25.0 | 1.56 | 12.5 | FC(=Cc1ccc(F)cc1)OCC1COC(Cn2ccnc2)(c2ccc(F)cc2F)O1 (mixture of isomers) [Ex. 49]
